Test results reported in patent publication EP1862466A2, “Arrays with cleavable linkers” (THE SCRIPPS RESEARCH INSTITUTE, priority 2004, dated 2006).

What was measured:
2G12 antibody [1] = assay: 2G12 binding study on cleavable linker glycan array in microtiter plates (Kd); design: species or system human; conditions: binding to 2G12 antibody
Protocol: Cleavable Linker Glycan Array in Microtiter Plates: Further experiments were performed using glycans immobilized within microtiter wells with the cleavable triazole linkers described in Example 7 as shown in FIG. 11.
2G12 Binding: After washing with QH2O, wells were blocked with 10 mM HEPES buffer, pH 7.5/150 mM NaCl buffer (200 µL) containing 0.1% Tween-20 over 1 h at 4 °C. The buffer was then removed and 2G12 (17 µg/mL PBS buffer; 200 µL) was incubated in the well over 1 h at 4°C. Wells were then washed with PBS buffer (3×; 200 µL) and fluorescein-conjugated Goat Anti-Human IgG antibody (14 µg/mL PBS buffer; 200 µL) was incubated in the well over 1 h in the dark at 4 °C. Wells were then washed with PBS buffer (3×; 200 µL) and fluorescence was measured with an excitation wavelength of 485 nm and emission wavelength of 535 nm.
Further studies were performed using a cleavable linker array to clarify the types of mannose-containing glycans bound by the 2G12 anti-HIV antibodies. […] The results of a binding study using increasing amounts of labeled Manα1,2Manα1,3Manα1,2 Manα1,6Man glycan with a constant amount of 2G12 antibody are shown in FIG. 16.

2G12 anti-HIV antibody = assay: 2G12 binding to glycan array printed on glass slide; design: species or system human; conditions: for Rel. spec. (relative binding activity of 2G12): glass-slide glycan array, 2G12 pre-complexed with secondary anti-IgG-FITC; for binding of 2G12 antibodies (in words): glycan array, initial experiments
Protocol: Construction of a glycan array printed on a glass slide: The library of carbohydrate structures was obtained through chemical and chemo-enzymatic synthesis as described above, as well as natural sources. This compound library contained a N-hydroxy succinimide (NHS)-reactive primary amino group, which was printed on a commercial NHS-activated glass surface (Accelr8 Technology Corporation, Denver, CO) using a microarray gene printer (TSRI).
Each glycan type was printed (≈0.5nL/spot) at various concentrations (10-100 µM) and each concentration in a replicate of six. Slides were further incubated with ethanolamine buffer to deactivate remaining NHS functional groups.
The 2G12 antibody was pre-complexed (for 10 min) with secondary human anti-IgG-FITC (2:1, 20µg/mL) prior to application to the glycan array. After incubation with the 2G12 antibodies, the array was washed by dipping the slide in buffer and water.

2G12 antibody [2] = assay: Carbohydrate microarray analysis, microtiter-based, Scatchard plot (Kd); type: binding, human; conditions: for Kd: oligomannose immobilized as azide derivative on cleavable linker in microtiter plate, fluorescent secondary antibody
Protocol: Carbohydrate microarray analysis. Ninety-six well NHS-coated microtiter plates (NoAb Biodiscoveries) were treated with 200 µL of a 1 mM methanolic solution of the amino-functionalized disulfide and alkyne containing linker (scheme V) containing 5 % diisopropylethylamine (DIEA) and incubated overnight at 4°C. The microtiter plate was then washed with 2 x 200 µL methanol and 2 x 200 µL water. Next, 200 µL solutions of azido-functionalized oligomannose derivatives 21-25 at varying concentrations from 0 to 500 µM in 5 % DIEA / methanol were introduced. A sprinkle of copper (I) iodide was added and the contents were allowed to react overnight at 4°C. The next day, the contents were removed and the plates were washed with 2 x 200 µL methanol and 2 x 200 µL water. The plates were then blocked with 0.1 % Tween20 solution in HEPES buffer pH 7.5 at 4 °C for 1 hour and then washed with 3 x 200 µL HEPES buffer. Next, 200 µL of a 1 µg/mL solution of 2G12 antibody in 0.1 % Tween20 / PBS buffer was added to the wells for a 1 hour incubation at 4 °C and then washed with 2 x 200 µL PBS buffer. At this point, 200 µL of FITC-tagged goat anti-human IgG antibody (10 µg/mL in PBS, Cal Biochem) was added for 1 hour at 4 °C, and the wells were then washed with 2 x 200 µL PBS buffer. Detection of the FITC-tagged secondary antibody was performed in 200 µL water using a fluorescence plate reader. The resulting data yielded the oligomannose-2G12 binding isotherms and Scatchard plot analysis was implemented in the determination of dissociation constants. Adams et al. (2004) Chem. Biol. 11: 875-81.
Overall, many of the oligomannose derivatives can compete for binding of Man9GlcNAc2, and, therefore, may serve as building blocks for potential immunogens to elicit 2G12-like antibodies. Carbohydrate Microarray Analysis. Previous studies by the inventors using covalent microtiter plates with a panel of carbohydrate epitopes for interaction with 2G12 involved converting the amine-containing oligomannoses 4, 5, 7, 8 and 9 to the corresponding azide derivatives 21, 22, 23, 24 and 25. These derivatives were then covalently attached to a microplate-immobilized cleavable linker via the Cu (I)-catalyzed 1,3-dipolar cycloaddition reaction (FIG. 11B). Kd values for the interaction of 2G12 with oligomannoses 4, 5, 7, 8, 9 (Table 9) were determined using a microtiter-based assay with detection via a fluorescent secondary antibody (see Bryan et al.(2004) J. Am. Chem. Soc. 126, 8640-41). Table 9: The Kd values of oligomannoses 1 and 4, 5, 7, 8, 9 binding to 2G12, as determined by carbohydrate microarray analysis.

β3GlcNAcT = β3GlcNAcT acceptor specificity (relative enzyme activity); type: biochemical, N. meningitidis; conditions: substance used as acceptor substrate; Galβ(1-4)Glc = 100
Text: The inventors have previously cloned and characterized the bacterial N. meningitidis enzymes β4GalT-GalE and β3GlcNAcT. Blixt, O.;Brown, J.;Schur, M.;Wakarchuk, W. and Paulson, J. C., J. Org. Chem. 2001, 66, 2442-2448; Blixt, O.;van Die, I.;Norberg, T. and van den Eijnden, D. H., Glycobiol. 1999, 9, 1061-1071. β4GalT-GalE is a fusion protein constructed from β4GalT and the uridine-5'-diphospho-galactose-4'-epimerase (GalE) for in situ conversion of inexpensive UDP-glucose to UDP-galactose providing a cost efficient strategy.
Both enzymes, β4GalT-GalE and β3GlcNAcT, were over expressed in E. coli AD202 in a large-scale fermentor (100 L). Bacteria were cultured in 2YT medium and induced with iso-propyl-thiogalactopyranoside (IPTG) to ultimately produce 8-10 g of bacterial cell paste / L cell media. The enzymes were then released from the cells by a microfluidizer and were solubilized in Tris buffer (25 mM, pH 7.5) containing manganese chloride (10 mM) and Triton X (0.25%) to reach enzymatic activities of about 50 U/L and 115 U/L of cell culture β4GalT-GalE and β3GlcNAcT, respectively.
The structures of these disaccharides are provided below. [drawing 23] [drawing 24] [drawing 25] [drawing 26]
Adding the hydrophobic para-nitrophenyl ring as an aglycon to the reducing end of the acceptors enhanced the activity of the enzyme up to 10 fold (compare 4 with 5 and 6 with 7). The increase in the enzyme activity by adding a hydrophobic aglycon to the acceptor sugar, though to the lesser extent, has also been shown for β4GalT (compare 12 with 13,14). The relaxed substrate specificity of these enzymes makes them very useful for preparative synthesis of various carbohydrate structures, including poly-N-acetyllactosamines. Table 4. Selected β4GalT-GalE and β3GlcNAcT Specificity Data

Molecule: Manα1,2Manα1,2Manα1,3(Manα1,2Man1,2Man1.6)Man
- Kd (2G12 antibody [1]): 700 nM

Molecule: NCCCO[C@H]1O[C@H](CO[C@H]2O[C@H](CO)[C@@H](O)[C@H](O)[C@@H]2O[C@H]2O[C@H](CO)[C@@H](O)[C@H](O)[C@@H]2O[C@H]2O[C@H](CO)[C@@H](O)[C@H](O)[C@@H]2O)[C@@H](O)[C@H](O[C@H]2O[C@H](CO)[C@@H](O)[C@H](O)[C@@H]2O)[C@@H]1O [Glycan 138]
- Rel. spec. (relative binding activity of 2G12) (2G12 anti-HIV antibody): +++ (+++ >25,000)

Molecule: NCCCCCO[C@H]1O[C@H](CO)[C@@H](O)[C@H](O[C@H]2O[C@H](CO)[C@@H](O)[C@H](O)[C@@H]2O[C@H]2O[C@H](CO)[C@@H](O)[C@H](O)[C@@H]2O[C@H]2O[C@H](CO)[C@@H](O)[C@H](O)[C@@H]2O)[C@@H]1O [Oligomannose 4]
- affinity for 2G12 antibodies (in words) (2G12 antibody [2]; microtiter plate array): greatest affinity

Molecule: NCCCO[C@H]1O[C@H](CO)[C@@H](O)[C@H](O[C@H]2O[C@H](CO)[C@@H](O)[C@H](O)[C@@H]2O[C@H]2O[C@H](CO)[C@@H](O)[C@H](O)[C@@H]2O[C@H]2O[C@H](CO)[C@@H](O)[C@H](O)[C@@H]2O)[C@@H]1O [Glycan 135]
- Rel. spec. (relative binding activity of 2G12) (2G12 anti-HIV antibody): +++ (+++ >25,000)

Molecule: O=[N+]([O-])c1ccc(O[C@@H]2OC(CO)[C@@H](O[C@@H]3OC(CO)[C@H](O)[C@H](O)C3O)[C@H](O)C2O)cc1 (stereo partly shown) [Compound 5]
- Relative enzyme activity (%) β(1-3)GlcNAcT-activity (β3GlcNAcT): 945%
- Kd (2G12 antibody [2]): 100 nM

Molecule: Man-8#aa Man8-aminoacid [Glycan 144]
- binding of 2G12 antibodies (in words) (2G12 anti-HIV antibody): Binding was observed

Molecule: CC(=O)N[C@H]1C(O)O[C@H](CO)[C@@H](O[C@@H]2O[C@H](CO)[C@H](O)[C@H](O)[C@H]2O)[C@@H]1O (stereo partly shown) [Compound 6]
- Relative enzyme activity (%) β(1-3)GlcNAcT-activity (β3GlcNAcT): 7%

Molecule: Manα 1,2Manα1 ,2Manα1 1,3(Manα1,2Man1,3 (Manα1.2Manα1 ,2Manα 1.6) )Man
- Kd (2G12 antibody [1]): 1000 nM

Molecule: Galβ(1-4)GlcNAc [Acceptor 6, reference compound]
- Relative enzyme activity (%) β(1-3)GlcNAcT-activity (β3GlcNAcT): 7-8%

Molecule: NCCCO[C@H]1O[C@H](CO[C@H]2O[C@H](CO)[C@@H](O)[C@H](O)[C@@H]2O[C@H]2O[C@H](CO)[C@@H](O)[C@H](O)[C@@H]2O)[C@@H](O)[C@H](O[C@H]2O[C@H](CO)[C@@H](O)[C@H](O)[C@@H]2O[C@H]2O[C@H](CO)[C@@H](O)[C@H](O)[C@@H]2O)[C@@H]1O [Glycan 136]
- Rel. spec. (relative binding activity of 2G12) (2G12 anti-HIV antibody): +++ (+++ >25,000)

Molecule: OCC1O[C@@H](O)C(O)[C@@H](O)[C@@H]1O[C@@H]1OC(CO)[C@H](O)[C@H](O)C1O (stereo partly shown) [Compound 4]
- Relative enzyme activity (%) β(1-3)GlcNAcT-activity (β3GlcNAcT): 100%
- Kd (2G12 antibody [2]): 100 nM

Molecule: OC[C@H]1O[C@@H](O[C@H]2[C@H](O)[C@@H](O)[C@H](O)O[C@@H]2CO)[C@H](O)[C@@H](O)[C@H]1O [Acceptor 4, Galβ(1-4)Glc, reference compound]
- Relative enzyme activity (%) β(1-3)GlcNAcT-activity (β3GlcNAcT): 100%

Molecule: Man-9#aa Man9-aminoacid [Glycan 145]
- binding of 2G12 antibodies (in words) (2G12 anti-HIV antibody): smaller level of binding

Molecule: Manα1,2Manα1,3Manα1,2 Manα1,6Man
- Kd (2G12 antibody [1]): 100 nM
